Experimental data: ChEMBL document CHEMBL5512665, “A CARM1 Inhibitor Potently Suppresses Breast Cancer Both In Vitro and In Vivo” (J Med Chem, 2024)
Activity calls are given as the source filed them. No cut-off for these calls is given here.

Experiments:
[1] = system: MDA-MB-231; assay: Antitumor activity against human MDA-MB-231 cells xenografted in BALB/C mouse assessed as reduction of tumor weight at 25 mg/kg,ip administrated daily for 11 days; format: functional, organism-based; conditions: time 11.0 day
[2] = Toxicity in BALB/C mouse implanted with mouse 4T1 cells assessed as change in liver morphology at 50 mg/kg,ip administrated daily for 14 days; format: organism-based; conditions: in vivo, 336 h, time 14 day
[3] = Toxicity in BALB/C mouse implanted with mouse 4T1 cells assessed as change in liver morphology at 25 mg/kg,ip administrated daily for 14 days; format: organism-based; conditions: in vivo, 336 h, time 14 day
[4] = Toxicity in BALB/C mouse implanted with mouse 4T1 cells assessed as change in body weight at 50 mg/kg,ip administrated daily for 14 days; format: organism-based; conditions: in vivo, 336 h, time 14 day
[5] = system: MCF7; assay: Synergistic antitumor activity against human MCF7 cells xenografted in BALB/C mouse assessed as downregulation of CCND1 gene expression at 25 mg/kg,ip administrated every other day for 15 days in presence of 5 mg/kg tamoxifen oral administration by RT-qPCR analysis; format: functional, organism-based; conditions: time 15.0 day
[6] = system: MCF7; assay: Antitumor activity against human MCF7 cells xenografted in BALB/C mouse assessed as downregulation of FOXC1 gene expression at 50 mg/kg,ip administrated every other day for 29 days by RT-qPCR analysis; format: functional, organism-based; conditions: time 29.0 day
[7] = Toxicity in BALB/C mouse xenografted with human MCF7 cells assessed as change in body weight at 25 mg/kg,ip administrated every other day for 29 days; format: organism-based; conditions: in vivo, 696 h, time 29 day
[8] = system: MCF7; assay: Induction of cell cycle arrest in human MCF7 cells at 2.5 to 10 uM incubated overnight by propidium iodide staining based flow cytometry; format: functional; conditions: dose 2.5-10 µM
[9] = system: MDA-MB-231; assay: Antitumor activity against human MDA-MB-231 cells xenografted in BALB/C mouse assessed as inhibition of tumor growth at 50 mg/kg,ip administrated daily for 11 days; format: functional, organism-based; conditions: time 11.0 day
[10] = system: MCF7; assay: Antitumor activity against human MCF7 cells xenografted in BALB/C mouse assessed as downregulation of CCND1 gene expression at 25 mg/kg,ip administrated every other day for 29 days by RT-qPCR analysis; format: functional, organism-based; conditions: time 29.0 day
[11] = system: 4T1; assay: Antitumor activity against mouse 4T1 cells implanted in BALB/C mouse assessed as downregulation of FOXC1 gene expression at 25 mg/kg,ip administrated daily for 14 days by RT-qPCR analysis; format: functional, organism-based; conditions: time 14.0 day
[12] = system: 4T1; assay: Antitumor activity against mouse 4T1 cells implanted in BALB/C mouse assessed as increase in infiltration of CD8 positive T cells at 25 mg/kg,ip administrated daily for 14 days by immunohistochemical staining based analysis; format: functional, organism-based; conditions: time 14.0 day
[13] = system: MCF7; assay: Potentiation of etoposide induced antiproliferative activity against human MCF7 cells assessed as upregulation of ISG15 gene expression at 2.5 uM in presence of etoposide by RT-qPCR analysis; format: functional, cell-based
[14] = Toxicity in BALB/C mouse xenografted with human MDA-MB-231 cells assessed as change in body weight at 50 mg/kg,ip administrated daily for 11 days; format: organism-based; conditions: in vivo, 264 h, time 11 day
[15] = system: MCF7; assay: Antitumor activity against human MCF7 cells xenografted in BALB/C mouse assessed as downregulation of N-Myc gene expression at 50 mg/kg,ip administrated every other day for 29 days by RT-qPCR analysis; format: functional, organism-based; conditions: time 29.0 day
[16] = system: MCF7; assay: Antitumor activity against human MCF7 cells xenografted in BALB/C mouse assessed as downregulation of GREB1 gene expression at 25 mg/kg,ip administrated every other day for 29 days by RT-qPCR analysis; format: functional, organism-based; conditions: time 29.0 day
[17] = Toxicity in BALB/C mouse xenografted with human MCF7 cells assessed as change in heart morphology at 50 mg/kg,ip administrated every other day for 29 days; format: organism-based; conditions: in vivo, 696 h, time 29 day
[18] = system: 4T1; assay: Antitumor activity against mouse 4T1 cells implanted in BALB/C mouse assessed as increase in infiltration of CD8 positive T cells at 50 mg/kg,ip administrated daily for 14 days by immunohistochemical staining based analysis; format: functional, organism-based; conditions: time 14.0 day
[19] = system: 4T1; assay: Antitumor activity against mouse 4T1 cells implanted in BALB/C mouse assessed as upregulation of ISG15 gene expression at 25 mg/kg,ip administrated daily for 14 days by RT-qPCR analysis; format: functional, organism-based; conditions: time 14.0 day
[20] = system: 4T1; assay: Potentiation of etoposide induced antiproliferative activity against mouse 4T1 cells assessed as upregulation of ISG15 gene expression at 2.5 uM in presence of etoposide by RT-qPCR analysis; format: functional, cell-based
[21] = system: MCF7; assay: Synergistic antitumor activity against human MCF7 cells xenografted in BALB/C mouse assessed as downregulation of FOXC1 gene expression at 25 mg/kg,ip administrated every other day for 15 days in presence of 5 mg/kg tamoxifen oral administration by RT-qPCR analysis; format: functional, organism-based; conditions: time 15.0 day
[22] = Toxicity in BALB/C mouse xenografted with human MDA-MB-231 cells assessed as change in lung morphology at 50 mg/kg,ip administrated daily for 11 days; format: organism-based; conditions: in vivo, 264 h, time 11 day
[23] = system: MCF7; assay: Antitumor activity against human MCF7 cells xenografted in BALB/C mouse assessed as downregulation of C-Myc gene expression at 50 mg/kg,ip administrated every other day for 29 days by RT-qPCR analysis; format: functional, organism-based; conditions: time 29.0 day
[24] = Toxicity in BALB/C mouse implanted with mouse 4T1 cells assessed as change in lung morphology at 50 mg/kg,ip administrated daily for 14 days; format: organism-based; conditions: in vivo, 336 h, time 14 day
[25] = system: MCF7; assay: Antitumor activity against human MCF7 cells xenografted in BALB/C mouse assessed as reduction of tumor size at 25 mg/kg,ip administrated every other day for 29 days; format: functional, organism-based; conditions: time 29.0 day
[26] = system: MDA-MB-468; assay: Antiproliferative activity against human MDA-MB-468 cells assessed as reduction in cell growth incubated for 7 days by celltiter 96 aqueous one solution cell proliferation assay; conditions: MDA-MB-468, 168 h
[27] = system: 4T1; assay: Antitumor activity against mouse 4T1 cells implanted in BALB/C mouse assessed as downregulation of PGR gene expression at 50 mg/kg,ip administrated daily for 14 days by RT-qPCR analysis; format: functional, organism-based; conditions: time 14.0 day
[28] = Toxicity in BALB/C mouse xenografted with human MCF7 cells assessed as change in lung morphology at 25 mg/kg,ip administrated every other day for 29 days; format: organism-based; conditions: in vivo, 696 h, time 29 day
[29] = system: 4T1; assay: Antitumor activity against mouse 4T1 cells implanted in BALB/C mouse assessed as downregulation of PGR gene expression at 25 mg/kg,ip administrated daily for 14 days by RT-qPCR analysis; format: functional, organism-based; conditions: time 14.0 day
[30] = Toxicity in BALB/C mouse xenografted with human MDA-MB-231 cells assessed as change in liver morphology at 50 mg/kg,ip administrated daily for 11 days; format: organism-based; conditions: in vivo, 264 h, time 11 day
[31] = system: MCF7; assay: Antiproliferative activity against human MCF7 cells with siRNA mediated CARM1 knockdown assessed as reduction in cell growth at 5 uM incubated for 7 days by celltiter 96 aqueous one solution cell proliferation assay; format: functional, cell-based; conditions: time 7.0 day
[32] = system: 4T1; assay: Antitumor activity against mouse 4T1 cells implanted in BALB/C mouse assessed as downregulation of TFF1 gene expression at 50 mg/kg,ip administrated daily for 14 days by RT-qPCR analysis; format: functional, organism-based; conditions: time 14.0 day
[33] = Toxicity in BALB/C mouse xenografted with human MCF7 cells assessed as change in kidney morphology at 25 mg/kg,ip administrated every other day for 29 days; format: organism-based; conditions: in vivo, 696 h, time 29 day

SMILES: Cc1ccc(-c2nc(N3CCN(CCN(C)C)CC3)ncc2-c2ccoc2)cc1.Cl.Cl
- Activity [1]: Active
- Activity [2]: Non-Toxic
- Activity [3]: Non-Toxic
- Activity [4]: Non-Toxic
- Activity [5]: Active
- Activity [6]: Active
- Activity [7]: Non-Toxic
- Activity [8]: Active
- Activity [9]: Active
- Activity [10]: Active
- Activity [11]: Active
- Activity [12]: Active
- Activity [13]: Active
- Activity [14]: Non-Toxic
- Activity [15]: Active
- Activity [16]: Active
- Activity [17]: Non-Toxic
- Activity [18]: Active
- Activity [19]: Active
- Activity [20]: Active
- Activity [21]: Active
- Activity [22]: Non-Toxic
- Activity [23]: Active
- Activity [24]: Non-Toxic
- Activity [25]: Active
- EC50 [26]: 2.02 µM
- Activity [27]: Active
- Activity [28]: Non-Toxic
- Activity [29]: Active
- Activity [30]: Non-Toxic
- Activity [31]: inactive
- Activity [32]: Active
- Activity [33]: Non-Toxic
